One may read the inhibition as how much of the control response was suppressed. A lower inhibition goes with little suppression.

One test concerns IgE. Nature of the test: Determination of IgE produced in in vitro culture of spleen cells from DNP-As immunized mice (ELISA). Type of test: cell-based, BALB/c mice. The note with it: Mus musculus, 96 h, 4 days culture, 37° C.; for inhibition at 10 µg/mL: 10 μg/ml; for inhibition at 20 µg/mL: 20 μg/ml. On the procedure: (§1) And the inhibitory activities of the quinolizinone derivative of formula (I) are further confirmed by the determination of serum concentrations of Igs in BALB/c mice which are immunized by DNP-As according to a procedure described in Immunology, Vol 21, pp 11-12, 1971.
(§2) BALB/c mice were immunized intraperitoneally with 5 μg of DNP-As adsorbed on 4 mg aluminum hydroxide gel Four weeks after the immunization,the spleens were excised from the mice and 5×10^7 spleen cells were transferred intravenously into the recipient mice which had been exposed to 600 rad of X-ray irradiation. Immediately after cell transfer, the recipients were then immunized intraperitoneally with 5 μg of DNP-As adsorbed on 4 mg aluminum hydroxide gel to induce adoptive secondary immune response. Further 4 weeks after the immunization of recipients, the spleens were excised from them and the spleen cell suspensions containing 5×10^6 cells/ml were cultured with or without a compound to be tested in 96-well micro-titer plates at 37° C. for 4 days. IgE and IgG secreted into the culture supernatant was each determined correspondingly by ELISA and the inhibitory effect was calculated according to the following equation. [formula]
(In general: In an ELISA, binding on a coated surface is turned into a signal by an enzyme label.)

The next test concerns IgG. Briefly: Determination of IgG (Igs other than IgE) produced in in vitro culture of spleen cells from DNP-As immunized mice (ELISA). In kind it is cell-based, BALB/c mice. The note with it: Mus musculus, 96 h, 4 days culture, 37° C.; for inhibition at 10 µg/mL: 10 μg/ml; for inhibition at 20 µg/mL: 20 μg/ml. On the procedure:
as §1, §2

Turning to `CCOC(=O)c1c(NCc2cncc(C)n2)c(C#N)c(=O)n2ccccc12` [S-17, 3-Cyano-1-ethoxycarbonyl-2-(6-methylpyrazinyl)-methylamino-4H-quinolizin-4-one], the values for the inhibition at 10 µg/mL in the test with IgE and in the test with IgG were 68% and 12%, respectively.

Consider `CCOC(=O)c1c(NCc2cnc(C)cn2)c(C#N)c(=O)n2ccccc12` [S-16, 3-Cyano-1-ethoxycarbonyl-2-(5-methylpyrazinyl)-methylamino-4H-quinolizin-4-one], for which the inhibition at 20 µg/mL with IgE amounted to 68%; with IgG it was 7%.

Take `CCOC(=O)c1c(NCc2ccccn2)c(C#N)c(=O)n2ccccc12` [S-1, 3-Cyano-1-ethoxycarbonyl-2-(2-pyridylmethylamino)-4H-quinolizin-4-one]: the results for the inhibition at 20 µg/mL with IgE and in the test on IgG were 60% and 13%, respectively.

Take `CCOC(=O)c1c(NCc2nccnc2C)c(C#N)c(=O)n2ccccc12` [S-15, 3-Cyano-1-ethoxycarbonyl-2-(3-methylpyrazinyl)methylamino-4H-quinolizin-4-one]: the inhibition at 10 µg/mL was found to be 73% in the test on IgE and 3% in the test with IgG.

Regarding `CCOC(=O)c1c(NCc2cnccn2)c(C#N)c(=O)n2ccccc12` [S-14, 3-Cyano-1-ethoxycarbonyl-2-pyrazinylmethylamino-4H-quinolizin-4-one], the inhibition at 10 µg/mL with IgE stood at 72%; with IgG it was 1%.

Regarding `CCOC(=O)c1c(NCc2cccnc2)c(C#N)c(=O)n2ccccc12` [S-6, 3-Cyano-1-ethoxycarbonyl-2-(3-pyridylmethylamino)-4H-quinolizin-4-one], the inhibition at 20 µg/mL in the test on IgE turned out to be 68%; in the test with IgG, 16%.

(Values after patent US4935425A, “4H-quinolizin-4-ones for treatment of diseases associated with immunoglobulin e-antibody formation” (Kissei Pharmaceutical Co., Ltd., priority 1987, dated 1990).)
